The subject of the assay is HIV. As to the kind of experiment: anti-HIV activity in freshly harvested PBMC cells (secondary HIV assay). The class given is cell-based. On the procedure:
These compounds were analyzed for anti-HIV activity in freshly harvested PBMC cells. Of the 30 tested compounds, 15 were active at a concentration of less than 100 ˜M (the highest tested concentration). Of these 15 compounds, 9 were […] to the PBMC cells at the 100 ˜M concentration; thus, an absolute conclusion regarding the differential toxicity to HIV and PBMC cells cannot be drawn with these 9 compounds. […]

In turn, `O=C1c2ccccc2C(=O)c2c1nc1ccccn21` [naphtho[2′,3′,4,5]imidazo[1,2-a]pyridine-6,11-dione] yielded an anti-HIV activity of 0.63 µM.
`CN(C)c1cccc2c(C=O)ccc(N(C)C)c12` yielded an anti-HIV activity of 0.022 µM.

These data come from patent publication US20110033850A1, “COMPOSITIONS AND METHODS FOR THE IDENTIFICATION OF INHIBITORS OF RETROVIRAL INFECTION” (priority 2007, published 2011).
